This note sets out measurements from patent US9353152B2, “Induction of the mitochondrial permeability transition” (NewSouth Innovations Pty Limited, priority 2002, dated 2016).

The assay has as its target T1, ANT Cys^160 (Rattus norvegicus, UniProt Q09073).
T1 construct: Rat liver sub-mitochondrial particles were prepared by sonication and differential centrifugation; from tissue; host or cells: rat liver sub-mitochondrial particles
T1 sequence (Q09073 1-298): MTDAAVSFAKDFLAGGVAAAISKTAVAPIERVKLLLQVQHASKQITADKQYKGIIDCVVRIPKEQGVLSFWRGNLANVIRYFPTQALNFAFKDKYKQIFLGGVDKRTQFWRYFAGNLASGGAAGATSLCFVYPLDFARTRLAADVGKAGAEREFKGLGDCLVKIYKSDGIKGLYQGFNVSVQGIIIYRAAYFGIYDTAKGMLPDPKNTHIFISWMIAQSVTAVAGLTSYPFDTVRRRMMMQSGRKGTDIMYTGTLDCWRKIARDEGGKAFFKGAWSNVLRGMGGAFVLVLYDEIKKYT
The experiment in a line: Labelling of ANT with eosin-5-maleimide (competition). It counts as binding. Conditions: 200 nmol GSAO per mg of protein, sub-mitochondrial particles. Here is the method:
Rat liver sub-mitochondrial particles were prepared by sonication and differential centrifugation according to Majima et al. (1998). The particles were suspended at 20 mg of protein per mL in 10 mM Tris, pH 7.2 buffer containing 250 mM sucrose and 0.2 mM EDTA and incubated without or with 200 nmol GSAO per mg of protein for 10 min at 25° C., followed by 20 nmol of eosin-5-maleimide per mg of protein for 1 min at 0° C. in the dark. The labelling was terminated by addition of 10 μmol of dithiothreitol per mg of protein. The proteins were resolved on 4-20% gradient iGels and the eosin-labelled ANT was visualised by UV transillumination using a Fluor-S™ Multilmager (Bio-Rad, Hercules, Calif.).

With `N[C@@H](CCC(=O)N[C@@H](CSCC(=O)Nc1ccc([As]=O)cc1)C(=O)NCC(=O)O)C(=O)O` (stereo partly shown) [GSAO, 4-(N—(S-glutathionylacetyl)amino)-phenylarsenoxide], the “competition for eosine-maleimide alkylation of ANT Cys^160” value is recorded as “competed”.
